Assay results published in publication PMC12183826, “Structure-based design and evaluation of tyrosinase inhibitors targeting both human and mushroom isozymes” (RSC Medicinal Chemistry, 2025).
Where two headings read alike, the source gives them in different places.

Experiments:
[1] = target: Agaricus bisporus tyrosinase (AbTYR); experiment: AbTYR inhibition assay; format: biochemical
Excerpt: (§1) No. T3824). Kojic acid was employed as a positive standard. The intramelanosomal domain of hTYR was expressed and purified as previously reported in the literature.[46] The reference compound Thiamidol was purchased from BLDpharm (Shanghai, China).

human tyrosinase (hTYR) [2] = target: T1, human tyrosinase (hTYR) (Homo sapiens, UniProt P14679); experiment: hTYR inhibition assay; format: biochemical
T1 construct: The intramelanosomal domain of hTYR was expressed and purified; made in house
T1 sequence (P14679 19-476 limits assumed): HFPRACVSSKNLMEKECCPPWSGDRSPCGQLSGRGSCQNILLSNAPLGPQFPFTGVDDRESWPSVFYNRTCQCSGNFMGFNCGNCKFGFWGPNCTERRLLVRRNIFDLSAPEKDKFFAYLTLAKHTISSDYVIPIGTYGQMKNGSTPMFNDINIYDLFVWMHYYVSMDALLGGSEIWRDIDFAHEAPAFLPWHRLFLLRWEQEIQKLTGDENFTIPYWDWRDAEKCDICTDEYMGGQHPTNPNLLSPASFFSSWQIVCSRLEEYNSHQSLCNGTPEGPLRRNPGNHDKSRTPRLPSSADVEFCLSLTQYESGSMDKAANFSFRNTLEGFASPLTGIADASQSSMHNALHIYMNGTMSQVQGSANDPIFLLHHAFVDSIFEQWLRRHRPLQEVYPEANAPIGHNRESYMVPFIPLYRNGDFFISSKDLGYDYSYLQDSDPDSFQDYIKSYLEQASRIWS
Excerpt: as §1

[3] = ABTS radical scavenging assay; details: read-out: Antioxidant activity EC50 (ABTS)
Procedure: Therefore, we conducted a preliminary assessment of the antioxidant activity of all synthesized target compounds by evaluating their ABTS radical scavenging capacity. The ABTS assay is widely recognized as one of the most reliable methods for measuring antioxidants' ability to neutralize the stable ABTS˙^+ radical cation.
The overall free radical-scavenging capacity of the compounds was evaluated using the ABTS [2,20-azinobis-(3-ethylbenzothiazoline-6-sulfonic acid)] assay according to previously described methods.[45] The method relies on the capacity of antioxidants to scavenge the ABTS˙^+ radical. To generate ABTS˙^+, a 7 mM ABTS solution was mixed with 2.45 mM potassium persulfate in water, and the mixture was incubated in the dark at room temperature for 24 h. Subsequently, 10 μL of sample at varying concentrations was added to 990 μL of the diluted ABTS˙^+ solution. After 1 min of reaction at room temperature, the absorbance was recorded at 734 nm. The reference antioxidant used was 6-hydroxy-2,5,7,8-tetramethylchromane-2-carboxylic acid (Trolox). Antioxidant activity was quantified as EC50, which represents the concentration of compound needed to reduce the initial absorbance by 50%.

MTT cell viability = format: cell-based; details: human, HaCaT keratinocyte cells
Procedure: Based on the inhibitory effects on hTYR and antioxidant properties on the ABTS assay, we focused our attention on compounds 2 and 3, which were further characterized as skin protective agents. In more detail, we evaluated their ability to influence the viability of human skin keratinocyte cell line HaCaT at distinct concentrations ranging from 5 to 50 μM (Fig. 6). […] Cell viability remained above 87% in compound 2 for all concentrations tested.
The 3-(4,5-dimethylthiazol-2-yl)-2,5-diphenyltetrazolium bromide (MTT) technique on human skin keratinocyte cell line (HaCaT; CLS-Cell Lines Service, Eppelheim, Germany) was employed to assess cell viability as reported by Pintus et al.[47] The cells were exposed to the compounds at concentrations ranging from […] for a duration of 24 h. Afterward, MTT reagent was added to each well, followed by incubation at 37 °C for 3 h. Following incubation, the MTT solution was removed from the culture plate, and 100 μL of DMSO solvent was added to dissolve the water-insoluble formazan crystals formed in the cells. The absorbance was then measured at 570 nm using a microplate reader (VANTAstar_BMG LABTECH GmbH, Offenburg, Germany).

HaCaT cells = experiment: Intracellular ROS levels (DCFH-DA), H2O2-induced; format: cell-based, human; details: 5–50 μM, 2 mM H2O2
Procedure: To further confirm their antioxidant capacity, we carried out an antioxidant assay in the skin keratinocyte cell line HaCaT. The levels of ROS were measured before and after exposure to H2O2-induced oxidative stress and after treatment with compounds 2 and 3 at various concentrations (5–50 μM).
Cellular ROS levels were measured using the 2′,7′-dichlorofluorescein diacetate (DCFH-DA) method.[48] HaCat cells were exposed to different concentrations of the test compounds, and after 24 h, cells were incubated with DCFH-DA (10 μM) at 37 °C for 30 min and then treated with 2 mM H2O2. The fluorescence intensity of DCF was immediately measured with a fluorescence plate reader (VANTAstar_BMGLABTECH GmbH, Offenburg, Germany).

[4] = Relative lipophilicity by RP-TLC; format: physicochemical; details: RP-TLC C18, acetone:water 2:1
Procedure: Based on the consideration that the lipophilicity of an active molecule exerts a relevant role in skin penetration as well as in the process of crossing the cell membrane, we chose to experimentally estimate the relative lipophilicity of the synthesized compounds 1–5. We employed reverse-phase thin layer chromatography (RP-TLC); the retardation coefficients (RFs) were measured from the chromatograms, thus generating the RM values as an estimation of the relative lipophilicity among the homogenous series of the studied compounds 1–5 in comparison with MehT-3. The Experimental procedure (4.3 Lipophilicity) contains a detailed description of the applied methods.
Experimental relative lipophilicity was determined by employing reversed phase TLC on 20 cm × 20 cm plates coated with C18 silica. The eluant was prepared by mixing acetone and water (2 : 1 (v/v)). The studied compounds and reference substances were dissolved in MeOH to obtain the working solution with a concentration of 2.0 mg mL^−1. Then, we activated the plates by heating at 105 °C for 1 h. From each working solution, a volume of 0.2 μL was spotted to the plates. The measurements were repeated three times with distinct disposition of the compounds on the plate, so that RF values represented the mean values obtained in triplicate. The chromatograms were developed at a distance of 10 cm from the origin in ascending TLC chambers at room temperature. Then, the spots of the substances were visualized by means of a UV lamp at 254 nm. Based on the retardation coefficients (RF) we calculated the relative lipophilicity RM values according to the formula RM = log[(1/RF) − 1];[44] higher RM values predict a higher lipophilicity.

[5] = tested on: Agaricus bisporus tyrosinase (AbTYR); set-up: method as in PMID 37657271, PMID 36093940; details: cited from earlier work
human tyrosinase (hTYR) [6] = target: T1, human tyrosinase (hTYR); details: cited from earlier work
[7] = set-up: method as in PMID 36675192; details: positive control; read-out: Antioxidant activity EC50 (ABTS); cited from earlier work

Row | IC50 [1] [µM] | IC50 (human tyrosinase (hTYR) [2]) [µM] | EC50 [3] [µM] | RM (relative lipophilicity) [4] | SMILES | also measured
1 | 40.7 ± 3.19 | 15.4 ± 1.2 | 17.1 ± 0.7 |  | O=C(O)c1ccccc1C(=O)N1CCN(c2ccc(O)cc2)CC1 [Compound 1, 2-[4-(4-hydroxyphenyl)piperazine-1-carbonyl]benzoic acid] | 
2 |  |  |  | −0.17 | COc1ccccc1C(=O)N1CCN(c2ccc(O)cc2)CC1 [MehT-3, [4-(4-hydroxyphenyl)piperazin-1-yl](2-methoxyphenyl)methanone] | Mode of inhibition of AbTYR (kinetic analyses) [5]: competitive inhibitor; IC50 ([5]; reference compound): 3.52 ± 0.25 µM; Mode of inhibition of hTYR (kinetic analyses) (human tyrosinase (hTYR) [6]): competitive inhibitor

The next lines start with the molecule.

Row | SMILES | IC50 [1] [µM] | IC50 (human tyrosinase (hTYR) [2]) [µM] | EC50 [3] [µM] | RM (relative lipophilicity) [4] | also measured
3 | O=C(c1ccc(=O)[nH]c1)N1CCN(c2ccc(O)cc2)CC1 [Compound 2, 5-[4-(4-hydroxyphenyl)piperazine-1-carbonyl]pyridin-2(1H)-one] | 13.2 ± 2.24 | 7.8 ± 0.8 | 9.5 ± 0.2 | −0.60 | viability at 24 h (MTT cell viability; all concentrations tested (5 to 50 μM)): > 87%; H2O2-induced ROS production (HaCaT cells): decreased the production of ROS induced by hydrogen peroxide in a dose-dependent manner
4 | CC(=O)N1CCN(c2ccc(O)cc2)CC1 [Compound 3, 1-[4-(4-hydroxyphenyl)piperazin-1-yl]ethan-1-one] | 31.8 ± 3.37 | 5.3 ± 0.9 | 14 ± 0.9 |  | viability at 24 h, 50 µM (MTT cell viability; 50 μM): 75%; H2O2-induced ROS production (HaCaT cells): decreased the production of ROS induced by hydrogen peroxide in a dose-dependent manner
5 | CCC(=O)N1CCN(c2ccc(O)cc2)CC1 [Compound 4, 1-[4-(4-hydroxyphenyl)piperazin-1-yl]propan-1-one] | 8.74 ± 0.36 | 24.1 ± 3.3 | 10.8 ± 0.3 |  | 
6 | CC(=O)NCC(=O)N1CCN(c2ccc(O)cc2)CC1 [Compound 5, N-[2-[4-(4-hydroxyphenyl)piperazin-1-yl]-2-oxoethyl]acetamide] | 4 ± 0.25 | 27.2 ± 6.2 | 10.4 ± 0.1 | −0.65 | 
7 | Cc1c(C)c2c(c(C)c1O)CCC(C)(C(=O)O)O2 (centres unmarked) [Trolox, 6-hydroxy-2,5,7,8-tetramethylchromane-2-carboxylic acid] |  |  |  |  | EC50 [7]: 13 ± 1.1 µM
